Assay results published in paper PMC7535926, “Serine phosphorylation regulates the P-type potassium pump KdpFABC” (eLife, 2020).

Molecular target: T1, KdpFABC (WT) (Escherichia coli, UniProt P03960)
T1 construct: gene kdpB; full-length kdpFABC operon on plasmid pSD107 (native promoter), 8x His tag at C-terminus of KdpC; expressed in E. coli TK2499; purified in decyl maltoside; KdpB Ser162 phosphate removed with lambda protein phosphatase; Potassium-transporting ATPase KdpC subunit; Potassium-transporting ATPase KdpF subunit
Assay: coupled-enzyme ATPase assay (pyruvate kinase / lactate dehydrogenase)
Type: biochemical

T1 sequence (P03960 whole entry): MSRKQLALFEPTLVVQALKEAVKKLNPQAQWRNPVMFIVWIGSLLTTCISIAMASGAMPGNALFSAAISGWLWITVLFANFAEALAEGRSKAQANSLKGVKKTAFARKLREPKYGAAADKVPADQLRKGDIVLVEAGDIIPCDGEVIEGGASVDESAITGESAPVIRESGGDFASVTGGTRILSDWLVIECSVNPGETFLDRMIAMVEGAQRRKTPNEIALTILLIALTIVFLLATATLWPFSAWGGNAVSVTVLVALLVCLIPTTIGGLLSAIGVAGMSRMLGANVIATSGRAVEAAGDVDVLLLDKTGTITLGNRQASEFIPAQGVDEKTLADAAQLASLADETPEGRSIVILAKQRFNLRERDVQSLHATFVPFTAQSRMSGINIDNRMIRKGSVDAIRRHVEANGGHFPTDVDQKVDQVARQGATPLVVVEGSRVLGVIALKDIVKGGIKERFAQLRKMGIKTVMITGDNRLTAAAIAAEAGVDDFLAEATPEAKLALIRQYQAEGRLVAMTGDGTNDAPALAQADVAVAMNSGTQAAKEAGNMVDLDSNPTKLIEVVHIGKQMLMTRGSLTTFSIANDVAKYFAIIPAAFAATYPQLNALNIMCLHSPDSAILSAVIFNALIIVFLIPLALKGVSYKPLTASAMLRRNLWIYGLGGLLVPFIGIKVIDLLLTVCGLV
T1 sequence (P03959 whole entry partner): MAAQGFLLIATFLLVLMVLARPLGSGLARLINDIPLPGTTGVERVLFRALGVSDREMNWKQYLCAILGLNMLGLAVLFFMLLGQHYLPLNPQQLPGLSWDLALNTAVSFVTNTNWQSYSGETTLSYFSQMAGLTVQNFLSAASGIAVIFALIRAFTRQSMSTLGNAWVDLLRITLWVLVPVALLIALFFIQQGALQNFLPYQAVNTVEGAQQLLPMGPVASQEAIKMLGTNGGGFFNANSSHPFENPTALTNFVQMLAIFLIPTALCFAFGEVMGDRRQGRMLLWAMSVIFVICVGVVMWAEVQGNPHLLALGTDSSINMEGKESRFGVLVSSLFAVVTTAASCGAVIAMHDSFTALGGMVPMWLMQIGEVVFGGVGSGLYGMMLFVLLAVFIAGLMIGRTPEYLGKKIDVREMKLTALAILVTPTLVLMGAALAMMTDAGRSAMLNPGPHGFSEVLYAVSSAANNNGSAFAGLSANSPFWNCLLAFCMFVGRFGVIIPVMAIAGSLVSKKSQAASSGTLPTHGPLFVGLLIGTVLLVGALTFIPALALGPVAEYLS
T1 sequence (P03961 whole entry partner): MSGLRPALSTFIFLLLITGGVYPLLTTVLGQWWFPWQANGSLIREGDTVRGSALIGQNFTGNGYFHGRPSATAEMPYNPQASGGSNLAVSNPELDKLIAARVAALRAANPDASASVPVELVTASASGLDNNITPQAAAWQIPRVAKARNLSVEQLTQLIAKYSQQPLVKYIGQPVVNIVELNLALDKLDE
T1 sequence (P36937 whole entry partner): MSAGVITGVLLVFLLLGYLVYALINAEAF

[O]=[V]([OH])([OH])[OH] [orthovanadate]
IC50: 8.4 µM
